In paper PMC11059095:

Test: Brønsted acid catalysed 8-endo cationic carbocyclisation of biphenyl-embedded enynes (C-C bond between tertiary carbocation from protonated alkene and distal alkyne carbon); TfOH 10 mol%, vinyl cation trapped by H2O (1.1 equiv) or internal nucleophile
Settings: the molecule shown is the open-chain precursor, 8-membered ring, 1,2-dichloroethane, 50.0 mM, 60.0 °C

SMILES | ring closure, isolated yield (2.0 h) [%] | ring closure, isolated yield [%]
CC#Cc1ccccc1-c1ccccc1C=C(C)C [1b -> 3b] | 99 | –
CC#Cc1ccccc1-c1cc(Cl)ccc1C=C(C)C [1p -> 3p] | 99 | –
CC#Cc1cc(Cl)ccc1-c1ccccc1C=C(C)C [1q -> 3q] | 95 | –
CC#Cc1ccccc1-c1ccc(OC)cc1C=C(C)C [1r -> 3r] | 82 | –
CC#Cc1cc(OC)ccc1-c1ccccc1C=C(C)C [1s -> 3s] | 70 | –
CC#Cc1cc(OC)c(C)c(OC)c1-c1cc(Cl)ccc1C=C(C)C [1t -> 3t] | 45 | –
CC(C)=Cc1ccccc1-c1ccccc1C#CCCO [1u -> 6u] | – | 31
COc1cccc(CC#Cc2ccccc2-c2ccccc2C=C(C)C)c1 [1v -> 6v] | – | 29
